Earlier results on one compound are cited in patent publication EP1136069A1, “Pharmaceutical compositions containing clodronates for high local tolerance intramuscular administration” (SPA SOCIETA' PRODOTTI ANTIBIOTICI S.p.A., priority 2000, dated 2001).

The conditions of the data set: oral route.

Regarding `O=P(O)(O)C(Cl)(Cl)P(=O)(O)O` [clodronate], the bioavailability is recorded as 1-4%.
